≈ marks a conversion by molar mass, not a printed value. Calls of active or inactive are those of the source. The rule behind the calls is not given here.
Experiments:
[1] = Cytotoxicity against human HepG2 cells assessed as reduction in cell viability after 40 hrs by Celltiter-Glo assay
[2] = test system: Mycobacterium tuberculosis; test: Antimycobacterial activity against GFP-tagged Mycobacterium tuberculosis H37Rv infected in mouse RAW264.7 cells incubated for 4 days by Mask blue/Hoechst/FITC staining based fluorescence microscopic analysis; type: functional; settings: 96 h
[3] = test system: Mycobacterium tuberculosis; test: Antimycobacterial activity against Mycobacterium tuberculosis H37Rv incubated for 5 days in presence of 25% human serum by Bactiter-Glo assay; type: functional; settings: 120 h
[4] = test system: Mycobacterium tuberculosis; test: Antimycobacterial activity against Mycobacterium tuberculosis H37Rv incubated for 5 days by Bactiter-Glo assay; type: functional; settings: 120 h
[5] = Drug metabolism in human hepatocytes assessed as demethylation of methoxy group/hydroxylation of distal aryl ring; type: ADME, cell-based, Hepatocyte
[6] = test system: Mycobacterium tuberculosis; test: Ratio of MIC80 for Mycobacterium tuberculosis H37Rv in presence of 25% human serum to MIC80 for Mycobacterium tuberculosis H37Rv; type: functional
Cytochrome P450 3A4 [7] = biological target: T1, Cytochrome P450 3A4 (Homo sapiens, UniProt P08684); test: Inhibition of CYP3A4 in human liver microsomes assessed as 6-beta-hydroxytestosterone metabolite formation using testosterone as substrate incubated for 30 mins by HPLC-MS method
T1 sequence (P08684 whole entry): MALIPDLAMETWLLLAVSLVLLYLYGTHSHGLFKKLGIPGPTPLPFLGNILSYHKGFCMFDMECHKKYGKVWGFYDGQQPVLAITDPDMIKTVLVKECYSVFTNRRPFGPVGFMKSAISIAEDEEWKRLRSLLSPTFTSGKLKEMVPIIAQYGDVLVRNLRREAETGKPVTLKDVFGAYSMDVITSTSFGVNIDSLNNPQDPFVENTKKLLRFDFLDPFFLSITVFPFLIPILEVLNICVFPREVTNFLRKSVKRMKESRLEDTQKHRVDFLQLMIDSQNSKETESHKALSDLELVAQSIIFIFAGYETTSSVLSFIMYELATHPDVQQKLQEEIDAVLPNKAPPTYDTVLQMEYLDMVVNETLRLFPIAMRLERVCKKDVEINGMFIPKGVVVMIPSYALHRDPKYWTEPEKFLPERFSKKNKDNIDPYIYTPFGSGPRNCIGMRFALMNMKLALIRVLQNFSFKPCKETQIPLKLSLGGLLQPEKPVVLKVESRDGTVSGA

[8] = test system: Mycobacterium tuberculosis; test: Growth inhibition of Mycobacterium tuberculosis H37Rv at 10 uM incubated for 5 days by Bactiter-Glo assay relative to control; type: functional; settings: 120 h, read-out: GI
Cytochrome P450 3A4 [9] = biological target: T1, Cytochrome P450 3A4; test: Inhibition of CYP3A4 in human liver microsomes assessed as 1'-hydroxymidazolam metabolite formation using midazolam as substrate incubated for 10 mins by HPLC-MS method
[10] = Lipophilicity, log P of compound; settings: octanol/water
[11] = Drug metabolism in human liver microsomes assessed as CYP450/FMO-mediated demethylation of methoxy group/hydroxylation of distal aryl ring at 5 uM after 20 mins in presence of NADPH; type: ADME
[12] = Aqueous equilibrium solubility of compound in pH 1 solution at 20 degC; settings: aqueous pH 1 solution
hERG (KCNH2) = hERG (KCNH2) (Homo sapiens, UniProt Q12809); test: Inhibition of human ERG at 10 uM relative to control
Sequence of hERG (KCNH2) (Q12809 whole entry): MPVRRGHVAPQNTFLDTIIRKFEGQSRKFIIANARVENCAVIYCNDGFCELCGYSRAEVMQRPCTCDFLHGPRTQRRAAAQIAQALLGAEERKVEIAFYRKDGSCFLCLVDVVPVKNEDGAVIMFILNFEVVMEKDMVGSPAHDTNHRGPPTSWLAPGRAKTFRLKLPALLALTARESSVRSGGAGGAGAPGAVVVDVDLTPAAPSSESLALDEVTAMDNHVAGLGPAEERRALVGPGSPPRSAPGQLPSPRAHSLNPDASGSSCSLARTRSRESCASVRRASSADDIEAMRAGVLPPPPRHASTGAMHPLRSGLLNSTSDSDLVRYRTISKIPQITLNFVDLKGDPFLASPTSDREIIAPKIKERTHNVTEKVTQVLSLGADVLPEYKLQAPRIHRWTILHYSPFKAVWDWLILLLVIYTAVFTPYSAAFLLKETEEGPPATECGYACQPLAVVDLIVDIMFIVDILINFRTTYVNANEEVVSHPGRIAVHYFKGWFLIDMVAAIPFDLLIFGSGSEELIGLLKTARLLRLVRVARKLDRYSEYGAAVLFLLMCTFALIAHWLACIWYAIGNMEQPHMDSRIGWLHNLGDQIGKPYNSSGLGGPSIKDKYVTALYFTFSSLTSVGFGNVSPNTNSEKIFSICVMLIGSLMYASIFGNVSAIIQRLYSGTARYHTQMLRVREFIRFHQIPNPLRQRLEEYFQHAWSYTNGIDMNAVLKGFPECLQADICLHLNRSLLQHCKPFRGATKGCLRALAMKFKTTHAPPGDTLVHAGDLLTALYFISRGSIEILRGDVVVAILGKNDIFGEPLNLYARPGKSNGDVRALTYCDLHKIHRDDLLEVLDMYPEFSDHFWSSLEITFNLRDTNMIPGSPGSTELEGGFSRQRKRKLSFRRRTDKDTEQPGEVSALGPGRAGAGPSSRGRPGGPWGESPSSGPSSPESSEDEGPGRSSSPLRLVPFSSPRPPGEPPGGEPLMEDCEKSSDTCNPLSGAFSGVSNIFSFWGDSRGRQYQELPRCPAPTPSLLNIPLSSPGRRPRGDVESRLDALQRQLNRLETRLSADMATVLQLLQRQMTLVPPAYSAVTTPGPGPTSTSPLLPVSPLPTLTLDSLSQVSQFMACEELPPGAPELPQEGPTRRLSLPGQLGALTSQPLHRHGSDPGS

[13] = Permeability in human Caco2 cells; settings: caco-2
[14] = Aqueous equilibrium solubility of compound in pH 7.4 solution at 20 degC; settings: aqueous pH 7.4 solution
[15] = Selectivity index, ratio of IC50 for human HepG2 cells to MIC80 for Mycobacterium tuberculosis H37Rv; type: toxicity, cell-based; settings: read-out: Selectivity Index
[16] = test system: Mycobacterium tuberculosis; test: Bacteriostatic activity against Mycobacterium tuberculosis H37Rv incubated for 5 days by Bactiter-Glo assay; type: functional
Salmonella typhimurium = test: Genotoxicity in Salmonella typhimurium by Ames test; type: toxicity, organism-based; settings: salmonella enterica subsp. enterica serovar typhimurium
[17] = test system: Mycobacterium tuberculosis; test: Antimycobacterial activity against Mycobacterium tuberculosis H37Rv incubated for 5 days in presence of 25% mouse serum by Bactiter-Glo assay; type: functional; settings: 120 h

Row | Structure (SMILES) | IC50 at 40 h ([1]; hepg2) [µM] | MIC80 [2] [µM] | MIC80 [3] [µM] | MIC80 [4] [µM] | Drug metabolism [5] | Ratio [6] | IC50 (Cytochrome P450 3A4 [7]) [µM] | inhibition of growth at 10 µM [8] [%] | IC50 (Cytochrome P450 3A4 [9]) [µM] | logP [10] | Drug metabolism [11] | solubility thermodynamic [12] [µg/mL] | inhibition at 10 µM (hERG (KCNH2)) [%] | IC50 at 40 h ([1]; HepG2 cells) [µM] | permeability [13] | solubility thermodynamic [14] [µg/mL] | selectivity ratio [15] | Activity [16] | Activity (Salmonella typhimurium) | MIC80 [17] [µM]
1 | COc1cnc(-c2ccc(CCNc3nc4cc(Cl)ccc4c(=O)n3C)cc2)nc1 | > 30 | 0.081 (≈ 34.2 ng/mL) | 3.52 | 0.016 (≈ 6.75 ng/mL) |  |  |  |  |  |  |  |  |  |  |  |  |  |  |  | 
2 | COc1ccc(CCNc2nc3cc(Cl)ccc3c(=O)n2C)cc1 |  | 0.163 (≈ 56 ng/mL) | 0.43 | 0.038 (≈ 13.1 ng/mL) | Metabolite_Detected | >10 | 4.3 | > 50 | < 1 | 4.08 | Metabolite_Detected | 11 (≈ 32 µM) | 35 | 13.4 | Permeable | ≤ 1 | > 10 | Active | Non-Toxic | 0.013
3 | COc1ccc(CCNc2nc3cc(OC)ccc3c(=O)n2C)cc1 |  |  |  | 0.026 (≈ 8.82 ng/mL) |  | >10 | 10 |  | < 1 | 3.1 |  | 734 (≈ 2160 µM) |  | > 30 | Permeable | 4 (≈ 11.8 µM) |  |  |  | 
4 | Cn1c(NCCc2ccc(-c3ncc(Cl)cn3)cc2)nc2cc(Cl)ccc2c1=O |  | 0.947 (≈ 404 ng/mL) | 0.11 | 0.006 (≈ 2.56 ng/mL) |  |  |  |  |  | 5.02 |  | 10 (≈ 23.5 µM) |  | > 30 | Permeable | < 1 |  |  |  | 
5 | Cn1c(NCCc2ccc(-c3ccc(F)cn3)cc2)nc2cc(Cl)ccc2c1=O | 19 | 0.051 (≈ 20.9 ng/mL) | 3.14 | 0.015 (≈ 6.13 ng/mL) |  |  |  |  |  |  |  |  |  |  |  |  |  |  |  | 
6 | Cn1c(NCCc2ccc(-c3ccccc3)cc2)nc2cc(Cl)ccc2c1=O |  | 0.164 (≈ 63.9 ng/mL) | 0.87 | 0.008 (≈ 3.12 ng/mL) |  | 8 | > 30 |  | > 30 | 5.27 |  | 5 (≈ 12.8 µM) |  | 6.5 | Permeable | < 1 |  |  |  | 
7 | Cn1c(NCCc2ccc(-n3cc(Cl)cn3)cc2)nc2cc(Cl)ccc2c1=O |  |  | 0.86 | 0.01 (≈ 4.14 ng/mL) |  | 8 |  |  | 16 | 4.67 |  | < 1 |  | 21.6 | Permeable | < 1 |  |  |  | 
8 | Cn1c(NCCc2ccc(-c3ncc(F)cn3)cc2)nc2cc(Cl)ccc2c1=O |  | 0.013 (≈ 5.33 ng/mL) | 0.39 | 0.003 (≈ 1.23 ng/mL) |  | 30 | 9.9 |  | > 30 | 4.46 |  | 11 (≈ 26.8 µM) |  | > 30 | Permeable | < 1 |  |  |  | 
9 | Cn1c(NCCc2ccccc2)nc2cc(Cl)ccc2c1=O |  |  | 2.79 | 0.06 (≈ 18.8 ng/mL) |  | 8 | 18 |  | 11 | 4.24 |  | 180 (≈ 574 µM) |  | 15.2 | Permeable | < 1 |  |  |  | 
